Assays:
[1] = target: full length USP7 (Homo sapiens (Human), UniProt Q93009); experiment: Ub-AMC enzymatic assay with full-length USP7; format: biochemical; conditions: full-length USP7, Ub-AMC
Protocol: Both constructs were overexpressed in E. coli BL21 (DE3). Cells were grown at 37° C. to an OD of 0.9, cooled to 16° C., induced with 500 μM isopropyl-1-thio-D-galactopyranoside (IPTG), incubated overnight at 16° C., collected by centrifugation, and stored at −80° C. Cell pellets were sonicated in lysis buffer (25 mM Tris pH 8, 1 M NaCl, and 10 mM BME) supplemented with 10 μg/ml phenylmethanesulfonylfluoride (PMSF) and the resulting lysate was centrifuged at 30,000×g for 40 min. Ni-NTA beads (Qiagen) were mixed with lysate supernatant for 2 hours, and washed with lysis buffer supplemented with 25 mM imidazole. The bound protein was eluted with lysis buffer supplemented with 300 mM imidazole. The sample was then concentrated to 1 ml (30 kDa concentrator; Amicon Ultra, Millipore), and run on a Superdex 200 (GE healthcare) in buffer containing 25 mM HEPES pH 7.5, 200 mM NaCl, and 1 mM DTT. Fractions were pooled, concentrated and frozen at −80° C.
(§1) Full length USP7 was tested for its activity in Ubiquitin-AMC assay in presence or absence of inhibitors. USP7 (5 nM) was pre-incubated for 6 hours at room temperature with different concentrations of inhibitors or DMSO as a control in 50 mM HEPES pH 7.5, 0.5 mM EDTA, 11 μM ovalbumin, and 5 mM DTT. Ubiquitin-AMC (Boston Biochem) was then added to a final concentration of 500 nM. The initial rate of the reaction was measured by collecting fluorescence data at one minute intervals over 30-minute period using a Clariostar fluorescence plate reader at excitation and emission wavelength of 345 and 445 nm respectively. The calculated initial rate values were plotted against inhibitor concentrations to determine IC50s. All the experimental data were plotted using Prism GraphPad. All assays for each compound were performed at least twice for each compound.

[2] = tested on: p53 target genes in MCF7 cells; experiment: Quantitative real-time PCR of MCF7 cells; format: cell-based; conditions: 1 μM, 6 or 24 hours
Protocol: After cell treatment under the indicated conditions, total cellular RNA was purified using a Qiagen RNEasy kit. 1 μg of RNA was then converted to cDNA using SuperScript III First-Strand Synthesis (Invitrogen). cDNA from each sample was then combined with the indicated TaqMan probe and 2× MasterMix in a 96-well Fast RT-PCR plate (Invitrogen). qPCR was performed on an Invitrogen 7500 Fast qPCR instrument and gene expression was calculated using the 2^−ΔΔct method on Graphpad Prism.

[3] = tested on: MCF7 cells; experiment: Cell cycle analysis by propidium iodide staining; format: cell-based; conditions: 1 μM, 24 hours
Protocol: For propidium iodide (PI) staining, treated cells (˜1 million per condition) were washed with cold PBS, then fixed in 80% ethanol overnight at −20° C. After fixing, cells were pelleted, washed with PBS, and reconstituted in 500 μL FxCycle PI/RNAse A staining solution (Thermo Fisher). Cells were stored overnight at 4° C. and analyzed using a BD Fortessa flow cytometer.

[4] = target: USP7-F291N (Homo sapiens (Human), UniProt Q93009, F291N); experiment: Ub-AMC assay with mutant USP7-F291N; format: biochemical; conditions: 6-hr pre-incubation
Chain of USP7-F291N (Q93009 whole entry F291N): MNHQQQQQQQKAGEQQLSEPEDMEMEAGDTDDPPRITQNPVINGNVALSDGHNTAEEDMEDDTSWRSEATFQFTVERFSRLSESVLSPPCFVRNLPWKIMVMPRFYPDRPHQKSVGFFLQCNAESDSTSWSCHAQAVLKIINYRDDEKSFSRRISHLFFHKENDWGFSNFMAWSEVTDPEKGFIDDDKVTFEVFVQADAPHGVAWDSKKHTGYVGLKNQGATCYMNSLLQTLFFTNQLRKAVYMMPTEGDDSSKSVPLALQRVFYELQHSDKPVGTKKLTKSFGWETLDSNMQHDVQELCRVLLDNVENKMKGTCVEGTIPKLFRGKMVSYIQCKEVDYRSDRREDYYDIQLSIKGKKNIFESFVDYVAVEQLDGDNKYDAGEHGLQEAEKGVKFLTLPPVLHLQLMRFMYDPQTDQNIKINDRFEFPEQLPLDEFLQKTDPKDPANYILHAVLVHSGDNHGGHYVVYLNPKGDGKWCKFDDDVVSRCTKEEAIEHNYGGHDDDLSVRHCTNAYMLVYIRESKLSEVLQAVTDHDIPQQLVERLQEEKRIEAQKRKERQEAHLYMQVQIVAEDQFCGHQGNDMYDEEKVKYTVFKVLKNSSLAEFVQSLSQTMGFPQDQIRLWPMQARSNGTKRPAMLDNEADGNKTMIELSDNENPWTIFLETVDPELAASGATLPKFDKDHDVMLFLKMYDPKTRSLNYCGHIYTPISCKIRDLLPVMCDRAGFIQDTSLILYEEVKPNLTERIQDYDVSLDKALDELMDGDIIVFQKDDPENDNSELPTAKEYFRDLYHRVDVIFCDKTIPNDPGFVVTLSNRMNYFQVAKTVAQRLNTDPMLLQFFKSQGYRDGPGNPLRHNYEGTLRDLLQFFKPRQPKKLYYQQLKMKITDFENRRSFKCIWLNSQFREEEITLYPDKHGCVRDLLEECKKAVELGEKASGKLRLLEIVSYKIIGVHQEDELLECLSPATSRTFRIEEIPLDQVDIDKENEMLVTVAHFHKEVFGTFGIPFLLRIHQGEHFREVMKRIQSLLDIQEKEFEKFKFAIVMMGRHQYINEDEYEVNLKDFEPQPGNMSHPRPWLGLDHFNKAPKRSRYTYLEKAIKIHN
Protocol: as §1

[5] = target: USP7-Q351S (Homo sapiens (Human), UniProt Q93009, Q351S); experiment: Ub-AMC assay with mutant USP7-Q351S; format: biochemical; conditions: 6-hr pre-incubation
Chain of USP7-Q351S (Q93009 whole entry Q351S): as the sequence (Q93009 whole entry F291N) above, with N291F, Q351S counted along it
Protocol: as §1

[6] = tested on: TC71 cells; experiment: Cell proliferation (CellTiter-Glo), TC71; format: cell-based; conditions: TP53-mutant, 3 days
Protocol: Cells were plated in 384-well culture-treated plates and allowed to settle overnight. After drug treatment and appropriate incubation time, cell viability was assessed using the CellTiter-Glo Luminescent Cell Viability Assay (Promega). Luminescence was read on a Fluostar Omega Reader (BMG Labtech).

Chain of full length USP7 (Q93009 whole entry): as the sequence (Q93009 whole entry F291N) above, with N291F counted along it

Compound: CN1CCN(CCC(=O)Nc2ccc3c(=O)n(CC4(O)CCN(C(=O)[C@@H](CCCNC(=O)c5ccc6c(Cl)c7c(nc6c5)CCCC7)Cc5ccccc5)CC4)cnc3c2)CC1 [compound 6, (S)—N-(4-benzyl-5-(4-hydroxy-4-((7-(3-(4-methylpiperazin-1-yl)propanamido)-4-oxoquinazolin-3(4H)-yl)methyl)piperidin-1-yl)-5-oxopentyl)-9-chloro-5,6,7,8-tetrahydroacridine-3-carboxamide]
- IC50 against USP7 (range in words) [1]: subnanomolar range
- transcription of p53 target genes (CDKN1A, GADD45A, BAX, DDB2) [2]: stimulating transcription of p53 target genes
- cell cycle effect [3]: complete G1 arrest
- loss in potency compared to wild-type enzyme [4]: 100 fold
- loss in potency compared to wild-type enzyme [5]: 100 fold
- growth inhibition [6]: neither TP53-mutant A673 or TC71 was substantially inhibited

Source: patent publication US12503453B2, “USP7 inhibition” (Dana-Farber Cancer Institute, Inc., priority 2018, dated 2025)
